In PubChem BioAssay (NCI) one finds GI50 and TGI data, which are given here for five compounds.

Some test systems named below: OVCAR-5 ovarian; IGROV1 ovarian; 786-0 renal; SK-MEL-5 melanoma; HCC-2998 colon; SK-OV-3 ovarian; KM12 colon; OVCAR-3 ovarian; SNB-75 CNS; MDA-MB-231 breast.
What all share (experiment): growth of human tumour cells (NCI), 48 h

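Protocol summary: plate cells (96-well), add compound at 5 concentrations, incubate 48 h, interpolate endpoints linearly. GI50: concentration for 50% inhibition of growth. TGI denotes the concentration required for complete inhibition of growth.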

As for `CCSCC1CC(O)(c2ccccc2)CC(c2ccc(F)cc2)O1` (stereo not given), the GI50 is 2.17 µM in the assay on OVCAR-5 ovarian; 2.12 µM in the assay on IGROV1 ovarian; 2.02 µM in the assay on 786-0 renal; 1.74 µM with SK-MEL-5 melanoma; 2.56 µM in the assay on HCC-2998 colon; 2.62 µM with SK-OV-3 ovarian. Besides, the GI50 was 1.88 µM in the assay on KM12 colon, 1.83 µM in the assay with OVCAR-3 ovarian, 1.88 µM in the assay with SNB-75 CNS and 1.98 µM in the assay with MDA-MB-231 breast. Also, the TGI in the assay with OVCAR-5 ovarian was 5.09 µM; in the assay with IGROV1 ovarian it was 5.75 µM; in the assay on 786-0 renal, 4.53 µM; with SK-MEL-5 melanoma, 3.16 µM; with HCC-2998 colon, 7.11 µM; in the assay on SK-OV-3 ovarian, 7.39 µM. Further, the TGI in the assay with KM12 colon is 3.67 µM; with OVCAR-3 ovarian it was 3.4 µM; in the assay on SNB-75 CNS, 5.74 µM; in the assay on MDA-MB-231 breast, 4.39 µM.
`CCCCCCCCCCCCOC1C(CNC(=O)C2OC3OC(C)(C)OC3C2NC(=O)Nc2ccc(CC(=O)OC)cc2)OC2OC(C)(C)OC21` (stereo not given): the GI50 was above 100 µM in the assay with OVCAR-5 ovarian; above 90.9 µM in the assay with IGROV1 ovarian; above 100 µM in the assay on 786-0 renal; above 100 µM in the assay with SK-MEL-5 melanoma; above 100 µM in the assay with HCC-2998 colon; above 100 µM in the assay with SK-OV-3 ovarian. The GI50 was above 100 µM with KM12 colon, above 100 µM with OVCAR-3 ovarian, above 100 µM in the assay on SNB-75 CNS and 8.43 µM with MDA-MB-231 breast. Further, the TGI with OVCAR-5 ovarian, in the assay on IGROV1 ovarian, in the assay on 786-0 renal, in the assay with SK-MEL-5 melanoma, in the assay on HCC-2998 colon and in the assay on SK-OV-3 ovarian was above 100 µM in each case. For the same compound, the TGI in the assay on KM12 colon is above 100 µM; in the assay on OVCAR-3 ovarian, above 100 µM; with SNB-75 CNS it was above 100 µM; in the assay on MDA-MB-231 breast it was above 82 µM.
`CC(C)C1=CC(=O)C(C)(C2C(O)CC3(C)C4CC=C5C(CCC(OC6OC(CO)C(O)C(O)C6OC6OC(C)C(O)C(O)C6O)C5(C)C)C4(C)C(=O)CC23C)O1` (stereo not given): the TGI with OVCAR-5 ovarian, in the assay with IGROV1 ovarian, with 786-0 renal, in the assay with SK-MEL-5 melanoma, in the assay on HCC-2998 colon and in the assay on SK-OV-3 ovarian was above 100 µM in each case. Further, the TGI in the assay on KM12 colon, in the assay with OVCAR-3 ovarian, with SNB-75 CNS and with MDA-MB-231 breast was above 100 µM in each case.
Take `COc1ccc(C2=N[C@@H](Cc3ccccc3)C(=O)Nc3ccsc32)cc1`: the GI50 in the assay with OVCAR-5 ovarian is 11.5 µM; in the assay with IGROV1 ovarian it was 12.8 µM; with 786-0 renal, 10.7 µM; in the assay on SK-MEL-5 melanoma it was 3.26 µM; in the assay with HCC-2998 colon, 12 µM; with SK-OV-3 ovarian, 4.56 µM. Also, the GI50 is 5.62 µM with KM12 colon, 3.56 µM in the assay on OVCAR-3 ovarian, 2.05 µM in the assay with SNB-75 CNS and 11.4 µM in the assay on MDA-MB-231 breast. Further, the TGI came to 36.4 µM in the assay on OVCAR-5 ovarian; 41 µM with IGROV1 ovarian; 36.6 µM in the assay on 786-0 renal; 12.1 µM with SK-MEL-5 melanoma; 25.8 µM in the assay on HCC-2998 colon; 17.3 µM in the assay on SK-OV-3 ovarian. In addition, the TGI was found to be 20.9 µM in the assay on KM12 colon, 9.88 µM in the assay on OVCAR-3 ovarian, 7.08 µM in the assay on SNB-75 CNS and 29.1 µM in the assay with MDA-MB-231 breast.
`COc1ccc(/C=C/C(=O)c2cc(OC)c(OC)c(OC)c2)cc1OCC(=O)Nc1nc2ccc(OC(F)(F)F)cc2s1`: the GI50 was 4.76 µM in the assay on OVCAR-5 ovarian; 2.54 µM in the assay with IGROV1 ovarian; 2.26 µM in the assay on 786-0 renal; 2.03 µM in the assay on SK-MEL-5 melanoma; 6.18 µM in the assay on HCC-2998 colon; 2.16 µM in the assay on SK-OV-3 ovarian. The GI50 with KM12 colon was 1.51 µM; in the assay with OVCAR-3 ovarian, 1.52 µM; in the assay on SNB-75 CNS it was 0.34 µM; in the assay with MDA-MB-231 breast it was 2.01 µM. Besides, the TGI with OVCAR-5 ovarian was found to be 31.2 µM; in the assay on IGROV1 ovarian, 5.56 µM; in the assay with 786-0 renal it was 4.97 µM; with SK-MEL-5 melanoma, 10.5 µM; in the assay on HCC-2998 colon, 25.1 µM; in the assay with SK-OV-3 ovarian it was 5.07 µM. The TGI with KM12 colon was determined as 4.19 µM; in the assay with OVCAR-3 ovarian, 3.14 µM; with SNB-75 CNS, 2.3 µM; in the assay with MDA-MB-231 breast it was 5.01 µM.
